Laboratory results from patent US20110092440A1, “METHOD OF REGULATING CELL GROWTH USING A PROTEASOME INHIBITOR” (THE BOARD OF TRUSTEES OF THE UNIVERSITY OF ILLINOIS, priority 2008, published 2011).
Non-standard residues stand in square brackets, D forms with d. Residues, ends and D or L forms follow the SMILES beside them. *: point of attachment. Nva = CCC[C@H](N)C(=O)O; Cbz = O=C(OCc1ccccc1)*; OtBu = CC(C)(C)O*

Key:
FoxM1 protein = assay: Immunoblot analysis of FoxM1 protein levels in tumor cells; format: cell-based, human; settings: U266, RPMI8226, HL-60 and U2OS cells, 24 hours, FIG. 2B
Description: The effects of proteasome inhibitors on FoxM1 protein expression were also examined. U266 and RPMI8226, both multiple myeloma cells, HL-60 leukemia cells and human U2OS osteosarcoma cells were treated with proteasome inhibitors MG115, MG132 and VELCADE® for 24 hours. Cell lysates were harvested and the FoxM1 protein levels were analyzed by immunoblot analysis. […] See also U.S. Patent Application Publication No. 2008/0152618.

[1] = tested on: FoxM1 transcriptional activity; assay: FoxM1-dependent luciferase assay in U2OS-C3-Luc cells; format: cell-based, human; settings: 1 μg/ml doxycycline, 24 hours, FIG. 2A
Description: The effects of proteasome inhibitors on FoxM1 transcriptional activity were tested by examining FoxM1-dependent luciferase activity in a luciferase assay. It was previously reported that thiazole antibiotics inhibited FoxM1-dependent transcriptional activity by measuring the reduction of luciferase activity in a U2OS-derived cell line stably expressing doxycycline-inducible FoxM1 and FoxM1-dependent luciferase (the U2OS-C3-Luc cell line). See U.S. Patent Application Publication No. 2008/0152618; Radhakrishnan et al. 2006; and Bhat et al., 2009. The same cell line was used in this experiment. U2OS-C3-Luc cells were treated with a combination of 1 μg/ml doxycycline and proteasome inhibitors at indicated concentrations for 24 hours, and the luciferase activity was measured. The luciferase activity was determined by using either the Luciferase Assay System (Promega, Madison, Wis.) or the Dual-Luciferase reporter assay system (Promega) according to the manufacturer's instructions.
The results shown in FIG. 2A (1) were normalized by the amount of proteins in the sample; and the results shown in FIG. 2A (2) were normalized using the Dual-luciferase reporter assay system (Promega).

[2] = tested on: U266 and RPMI8226 multiple myeloma, HL-60 leukemia and U2OS osteosarcoma cells; assay: Annexin V-PE/7AAD staining, FACS analysis of apoptosis; format: cell-based, human; settings: U266, RPMI8226, HL-60 and U2OS cells, FIG. 3
Description: Proteasorne inhibitor-induced apoptosis was further quantified by using Annexin V-PE/7AAD staining. U266 and RPMI8226 multiple myeloma, HL-60 leukemia and U2OS osteosarcoma cells were cultured in the presence of proteasome inhibitors MG115, MG132 and VELCADE®. Following proteasome inhibitor treatment (or DMSO in the control), cells were stained with Annexin V-PE/7AAD (BD-Pharmingen, Franklin Lakes, N.J.) and then analyzed by Fluorescence-activated Cell Sorting (FACS). […] The concentrations of proteasome inhibitors used in the experiments shown in FIG. 3 were the same as those in FIG. 2. The percentages of apoptotic cells were shown in the parentheses in FIG. 3. The induction of apoptosis correlated with the suppression of FoxM1 (see FIG. 3 and FIG. 2B).

20S proteasome = molecular target: T1, 20S proteasome (Homo sapiens, UniProt P28074); assay: 20S Proteasome Activity Assay Kit (LLVY-AMC cleavage); format: biochemical; settings: 25 μM, 15 minutes pre-incubation, 1 hour at 37° C., FIG. 1C
T1 construct: Millipore
Description: The effects of Siomycin A and thiostrepton on the 20S proteasome were compared with proteasome inhibitors MG132 and lactacystin using the Proteasome Activity Assay Kit following the manufacturer's instructions (Millipore). […] Proteasome samples were prepared according to the manufacturer's instructions. […] Samples were incubated for 1 hour at 37° C. and the fluorescence derived from the cleaved AMC was detected and quantified using a 380/460 nm filter in a fluorometer (Spectra Max GeminiXS, Molecular Devices, Sunnyvale, Calif.).

HPAC cells = assay: Apoptosis induction by Siomycin A alone, HPAC; format: cell-based, human; settings: data not shown
BxPC3 cells = assay: Apoptosis induction by Siomycin A alone, BxPC3; format: cell-based, human; settings: data not shown
[3] = tested on: FoxM1 transcriptional activity; settings: previously reported (US 2008/0152618; Radhakrishnan et al., 2006); cited from earlier work
Mia Paca cells = assay: Apoptosis induction by Siomycin A alone, Mia Paca; format: cell-based, human; settings: data not shown
[4] = tested on: Hdm2, p53, Mcl-1 and p21 protein levels in U2OS cells; assay: Immunoblot analysis of Hdm2, p53, Mcl-1 and p21 protein levels in U2OS cells; format: cell-based, human; settings: FIG. 1A
Excerpt: The effects of Siomycin A on the protein levels of these genes in the cells were compared with those of a proteasome inhibitor MG132.

MDAMB231 cells = assay: Apoptosis induction by Siomycin A alone, MDAMB231; format: cell-based, human; settings: data not shown
[5] = tested on: NF-κB transcriptional activity; assay: TNF-α-induced NF-κB-dependent luciferase assay in 293T-NF-κB-Luc cells; format: cell-based; settings: 10 ng/mL TNF-α 24 hours, then compound 10 hours, FIG. 1B
Description: Proteasome inhibitors were known to inhibit the activity of NF-κB via the stabilization of its negative regulator IκB-α (Nakanishi et al., 2005, Nat Rev Cancer 5:297-309; Nencioni et al., 2007). The effects of Siomycin A and thiostrepton on NF-κB-dependent transcriptional activity were tested. 293T cells stably transfected with an NF-κB-Luc reporter construct (293T-NF-κB-Luc) were induced with 10 ng/mL TNF-αfor 24 hours. The next day, the cells were treated with Siomycin A or thiostrepton for an additional 10 hours, and followed by luciferase assay. The luciferase activity was determined by using the Luciferase Assay System (Promega, Madison, Wis.) according to the manufacturer's instructions. The data were normalized based on the amount of proteins in the samples.

[6] = tested on: Prostate cancer DU145 and PC3 cells; format: cell-based; settings: data not shown
[7] = toxicity studies, Aghajanian et al., 2002; cited from earlier work
U2OS-C3 cells = assay: Active caspase 3 immunoblot in U2OS-C3 cells with doxycycline-induced FoxM1 over-expression; format: cell-based, human; settings: compound 24 hours, FIG. 4
Description: Over-expression of FoxM1 was often observed in a variety of tumors. See Pilarsky et al., 2004, Neoplasia 6(6):744-750; Chan et al., 2008, J Pathol 215(3):245-252. A U2OS-derived cell line stably expressing doxycycline-inducible FoxM1-GFP fusion protein (U2OS-C3) was used to examine the role of FoxM1 in apoptosis induced by proteasome inhibitors. Exogenous FoxM1 expression was induced by doxycycline and the following day the cells were treated with different concentrations of VELCADE® for 24 hours.

Structure (SMILES) | levels of FoxM1 protein (FoxM1 protein) | FoxM1 transcriptional activity (luciferase) [1] | induction of apoptosis (Annexin V-PE/7AAD) [2] | proteolytic activity of the 20S proteasome (free AMC) (20S proteasome) | also measured
CCC[C@@H](C=O)NC(=O)[C@H](CC(C)C)NC(=O)[C@H](CC(C)C)NC(=O)OCc1ccccc1 [MG115, Z-L-leucyl-L-leucyl-L-norvalinal] (Cbz-Leu-Leu-[Nva]-aldehyde) | the levels of FoxM1 protein decreased | inhibited FoxM1 transcriptional activity | induced apoptosis in the cells |  | 
CC(C)C[C@@H](C=O)NC(=O)[C@H](CC(C)C)NC(=O)[C@H](CC(C)C)NC(=O)OCc1ccccc1 [MG132, Z-L-leucyl-L-leucyl-L-leucinal] (Cbz-Leu-Leu-Leu-aldehyde) | the levels of FoxM1 protein decreased | inhibited FoxM1 transcriptional activity | induced apoptosis in the cells | the decrease was not as prominent as that by MG132 or lactacystin | 
CC[C@H](C)[C@H](NC(=O)OCc1ccccc1)C(=O)N[C@@H](CCC(=O)OC(C)(C)C)C(=O)N[C@@H](C)C(=O)N[C@H](C=O)CC(C)C [PSI, N-benzyloxycarbony-Ile-Glu-(O-t-butyl)-Ala-leucinal] (Cbz-IE(OtBu)AL-aldehyde) |  | inhibited FoxM1 transcriptional activity |  |  | 
C=C(NC(=O)C(=C)NC(=O)c1csc(C2=N[C@@H]3c4csc(n4)[C@H]4NC(=O)c5csc(n5)[C@H]([C@](C)(O)[C@@H](C)O)NC(=O)[C@H]5CSC(=N5)/C(=C/C)NC(=O)[C@H]([C@@H](C)O)NC(=O)c5csc(n5)[C@]3(CC2)NC(=O)[C@H](C)NC(=O)C(=C)NC(=O)C(=C)NC(=O)[C@H](C(C)C)N[C@@H]2C=Cc3c([C@H](C)O)cc(nc3[C@H]2O)C(=O)O[C@@H]4C)n1)C(N)=O [Siomycin A] |  |  |  | decreased proteolytic activity of the 20S proteasome | concentration required to induce apoptosis when used alone (HPAC cells): 10 to 15 µM; concentration required to induce apoptosis when used alone (BxPC3 cells): 5 µM; FoxM1 transcriptional activity and FoxM1 protein expression, reported previously [3]: inhibited FoxM1 transcriptional activity as well as FoxM1 protein expression in cells; concentration required to induce apoptosis when used alone (Mia Paca cells): 5 µM; cellular protein levels of Hdm2, p53, Mcl-1 and p21 [4]: increased the cellular protein levels of Hdm2, p53, Mcl-1 and p21; concentration required to induce apoptosis when used alone (MDAMB231 cells): 5 µM; TNF-α-induced NF-κB transcriptional activity [5]: suppressed TNF-α-induced NF-κB transcriptional activity
CC(C)C[C@H](NC(=O)[C@H](Cc1ccccc1)NC(=O)c1cnccn1)B(O)O [VELCADE®, pyrazylcarbony-phenylalanyl-leucyl-boronate] | the levels of FoxM1 protein decreased | inhibited FoxM1 transcriptional activity | induced apoptosis in the cells |  | minimal concentration required for induction of caspase 3 expression, compound alone [6]: 50 nM; therapeutic index [7]: very narrow therapeutic index; active caspase 3 expression in cells over-expressing FoxM1 (U2OS-C3 cells): VELCADE®-induced active caspase 3 expression was reduced in cells that over-expressed FoxM1
COc1cccc2c1C(=O)c1c(O)c3c(c(O)c1C2=O)C[C@@](O)(C(=O)CO)C[C@@H]3O[C@H]1C[C@H](N)[C@H](O)[C@H](C)O1 [doxorubicin] |  |  |  |  | active caspase 3 expression in cells over-expressing FoxM1 (U2OS-C3 cells): over-expression of FoxM1 did not protect against doxorubicin-induced caspase 3 expression
CC(=O)N[C@@H](CSC(=O)[C@]1([C@@H](O)C(C)C)NC(=O)[C@H](C)[C@@H]1O)C(=O)O [lactacystin] |  |  |  | the decrease was not as prominent as that by MG132 or lactacystin | 
C=C(NC(=O)C(=C)NC(=O)c1csc(C2=N[C@@H]3c4csc(n4)[C@H]4NC(=O)c5csc(n5)[C@H]([C@](C)(O)[C@@H](C)O)NC(=O)[C@H]5CSC(=N5)/C(=C/C)NC(=O)[C@H]([C@@H](C)O)NC(=O)c5csc(n5)[C@]3(CC2)NC(=O)[C@H](C)NC(=O)C(=C)NC(=O)[C@H](C)NC(=O)[C@H]([C@@H](C)CC)N[C@@H]2C=Cc3c([C@H](C)O)cc(nc3[C@H]2O)C(=O)O[C@@H]4C)n1)C(N)=O [thiostrepton] |  |  |  | decreased proteolytic activity of the 20S proteasome | minimal concentration required for induction of caspase 3 expression, compound alone [6]: 3000 nM; FoxM1 transcriptional activity and FoxM1 protein expression, reported previously [3]: inhibited FoxM1 transcriptional activity as well as FoxM1 protein expression in cells; TNF-α-induced NF-κB transcriptional activity [5]: suppressed TNF-α-induced NF-κB transcriptional activity
